Patent US20150329505A1, “A FLUORESCENT COMPOSITION FOR USE IN MARKING OBJECTS, SUCH AS FLOWERS” (BIOCONST PTY LTD, priority 2012, published 2015)
Where a name gives a salt, the structure may show the parent alone. Read-outs that look alike come from different tables or passages of the source.

Assays:
flowers [1] = assay: Effect of sprayed solutions on wilting and vase life of flowers
Experimental: (§2) The above solutions were prepared by adding the fluorophore to tap water, in order to test the properties of the fluorophores in a non-sterilised, non-purified aqueous solution. The solutions were placed into a spray device for application to the surface of the relevant plants.
(§3) Solutions were sprayed onto chrysanthemums and roses and allowed to dry overnight at room temperature.

flowers [2] = conditions: in vivo
Experimental: as §2, §3

[3] = Fluorescence emitted by sprayed flowers when excited by UV light; conditions: 0.1% pyranine, 0.5% sugar, 0.1% sodium bicarbonate, pH 7.72, dried overnight, then 1 mM, 1.5 mM and 2 mM HCl
[4] = Autoclaving of fluorophore solutions; type: physicochemical; conditions: 0.5% (w/v) of the sugar, 0.1% pyranine, 0.1% sodium bicarbonate, autoclaved at 121° C.
Experimental: Fluorophore solution containing sugar caused the increase in growth of bacteria and fungus.
Fluorophore solution was prepared containing 0.1% (w/v) pyranine, 0.5% (w/v) sucrose, 0.1% (w/v) sodium bicarbonate. A similar solution was prepared with the same concentration of fructose. A small quantity of both the solutions prepared was kept aside for future use. Both the solutions were autoclaved at 121° C. in an Atherton Squirrel autoclave. This was then allowed to cool to room temperature and sprayed on flowers. Solutions which were kept aside previously (and which were not auto-claved) were also sprayed onto flowers. A negative control with no spray was also used to monitor vase life.

[5] = Effect of time of UV exposure on fluorescence; type: physicochemical; conditions: 0.1% (w/v) sprayed on flowers, 6 hours, UV torch 50,000 μW/cm2
Experimental: The effect of long term exposure of UV light was tested on flowers sprayed with fluorophore
Flowers were sprayed with 0.1% (w/v) pyranine solution. The flowers were allowed to dry overnight. A UV torch Optimax™ 365, having an intensity of 50,000 μW/cm2 was shone on the sprayed flowers.

chrysanthemum flower = assay: Uptake of fluorophore by cut flowers; type: in vivo; conditions: cut stems in 0.1% (w/v) pyranine, 0.5% (w/v) sucrose overnight
Experimental: (§1) Freshly cut stems of flowers (roses and chrysanthemums) were prepared and the ends of the stems placed in a solution of 0.1% (w/v) pyranine, 0.5% (w/v) sucrose. The cut end of the flowers was left in the solution overnight and uptake of the fluorophore viewed under UVA light.

rose flower = assay: Uptake of fluorophore by cut flowers; type: in vivo; conditions: cut stems in 0.1% (w/v) pyranine, 0.5% (w/v) sucrose overnight
Experimental: as §1

O=C([O-])c1ccccc1-c1c2cc(Br)c(=O)c(Br)c-2oc2c(Br)c([O-])c(Br)cc12.[Na+].[Na+] [Eosin Y, reference compound]
wilting of flowers and vase life (flowers [1]; 0.5% (w/v) in tap water, sprayed onto chrysanthemums and roses, dried overnight): caused wilting of flowers and reduced vase life

O=C1OC2(c3ccc(O)cc3Oc3cc(O)ccc32)c2ccccc21 [Fluorescein, reference compound]
wilting of flowers and vase life (flowers [2]): caused wilting of flowers and reduced vase life

Cl [HCl]
change of fluorescence colour after acidic spray [3]: no change in colour to fluorescent blue

O=C(CO)[C@@H](O)[C@H](O)[C@H](O)CO [fructose]
appearance of the solution after autoclaving [4]: dark brown

COC(=O)c1ccc(O)cc1 [methylparaben]
wilting and vase life (flowers [2]): caused wilting of the flowers and reduced the vase-life of the flower

O=S(=O)([O-])c1cc(O)c2ccc3c(S(=O)(=O)[O-])cc(S(=O)(=O)[O-])c4ccc1c2c34.[Na+].[Na+].[Na+] [pyranine, 8-Hydroxypyrene-1,3,6-trisulfonic acid trisodium salt]
change of fluorescence on continuous UV exposure [5]: no visible change in the colour of fluorescence | vase life of flower (flowers [1]; 0.05% (w/v) in tap water, sprayed onto chrysanthemums and roses): did not affect the vase life of flower | vase life (flowers [1]; 0.05% to 0.5% (w/v) in tap water): did not affect vase life | uptake of the fluorophore viewed under UVA light (chrysanthemum flower): The veins in the petals of the flower demonstrate fluorescence | uptake of the fluorophore viewed under UVA light (rose flower): The veins in the petals of the flower demonstrate fluorescence

O=C([O-])O.[Na+] [sodium bicarbonate]
vase life (flowers [2]): did not affect the vase-life of the flower

OC[C@H]1O[C@@](CO)(O[C@H]2O[C@H](CO)[C@@H](O)[C@H](O)[C@H]2O)[C@@H](O)[C@@H]1O [sucrose]
appearance of the solution after autoclaving [4]: fluorescent green
